Laboratory results: article PMC12508159 (NPJ Biofilms and Microbiomes, 2025)

Columns and labels:
[1] = target: T1, serine-rich adhesin for platelets (SraP), L-lectin module (SLL) (Staphylococcus aureus, UniProt Q8NUJ3); test: SPR; format: binding
[2] = target: T1, serine-rich adhesin for platelets (SraP), L-lectin module (SLL); test: SPR; format: binding; remark: listed apart in the source

T1 sequence (Q8NUJ3 245-480): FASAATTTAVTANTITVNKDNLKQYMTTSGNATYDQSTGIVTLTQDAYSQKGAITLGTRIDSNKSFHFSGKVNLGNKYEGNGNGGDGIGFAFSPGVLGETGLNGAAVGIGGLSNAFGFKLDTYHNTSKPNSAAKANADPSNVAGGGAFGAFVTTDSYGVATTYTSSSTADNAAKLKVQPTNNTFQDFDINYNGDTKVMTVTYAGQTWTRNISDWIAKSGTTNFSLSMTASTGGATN

Structure (SMILES) | Kd [1] [nM] | SPR (Biacore T200), dose-dependent [2]
O=C1O[C@H]2[C@@H]3OC(=O)c4cc(O)c(O)c(O)c4-c4c(O)c(O)c5oc(=O)c6c(c(O)c(O)c7oc(=O)c4c5c76)-c4c(cc(O)c(O)c4O)C(=O)OC[C@H]3OC(O)[C@@H]2OC(=O)c2cc(O)c(O)c(O)c2-c2c1cc(O)c(O)c2O (mixture of isomers) [PA, punicalagin] | 566 | –
COc1cc(-c2oc3cc(O)cc(O)c3c(=O)c2O[C@@H]2O[C@H](CO[C@@H]3O[C@@H](C)[C@H](O)[C@@H](O)[C@H]3O)[C@@H](O)[C@H](O)[C@H]2O)ccc1O [isorhamnetin-3-O-β-rutinoside] | – | isorhamnetin-3-O-β-rutinoside, EGCG, neoeriocitrin, and isoviolanthin, were verified to possess strong binding signals in a dose-dependent manner
C[C@@H]1O[C@@H](O[C@H]2[C@H](Oc3cc(O)c4c(c3)O[C@H](c3ccc(O)c(O)c3)CC4=O)O[C@H](CO)[C@@H](O)[C@@H]2O)[C@H](O)[C@H](O)[C@H]1O [neoeriocitrin] | – | EGCG, neoeriocitrin, and isoviolanthin, were verified to possess strong binding signals in a dose-dependent manner
